Test: xn = mol fraction of the nth substance listed
Conditions: 101.3 kPa, Liquid; for viscosity: Oscillating disk viscometry; for mass density: Vibrating tube method

NCCO [2-aminoethan-1-ol] + O
Conditions | mass density, x1 = 0.0394 [kg/m3] | mass density, x1 = 0.087 [kg/m3] | mass density, x1 = 0.1456 [kg/m3] | mass density, x1 = 0.2197 [kg/m3] | viscosity, x1 = 0.0394 [mPa·s] | viscosity, x1 = 0.087 [mPa·s] | viscosity, x1 = 0.1456 [mPa·s] | viscosity, x1 = 0.2197 [mPa·s]
293.15 K | 1005.3 | 1011.8 | 1018.9 | 1025.7 | 1.19 | 2.1 | 3.06 | 5.58
298.15 K | 1003.8 | 1009.9 | 1016.3 | 1022.7 | 1.06 | 1.71 | 2.69 | 4.67
303.15 K | 1002.1 | 1007.7 | 1013.7 | 1019.7 | 0.94 | 1.47 | 2.29 | 3.91
308.15 K | 1000.3 | 1005.6 | 1011.2 | 1016.8 | 0.85 | 1.3 | 1.91 | 3.28
313.15 K | 998.2 | 1003.2 | 1008.5 | 1013.6 | 0.76 | 1.15 | 1.69 | 2.77
318.15 K | 996 | 1000.7 | 1005.7 | 1010.5 | 0.69 | 1.03 | 1.5 | 2.39
323.15 K | 993.8 | 998.2 | 1002.8 | 1007.3 | 0.63 | 0.93 | 1.33 | 2.11
328.15 K | 988.9 | 995.8 | 1000.1 | 1004.4 | 0.58 | 0.85 | 1.17 | 1.85
333.15 K | 987.2 | 995.1 | 999.3 | 1003.2 | 0.54 | 0.79 | 1.05 | 1.65

From the NIST ThermoML archive (doi:10.1021/acs.jced.8b00070)
